From paper PMC7083851, “Extended pharmacodynamic responses observed upon PROTAC-mediated degradation of RIPK2” (Communications Biology, 2020)
Values joined by “and” are separate entries in the source; they are usually repeats but may differ in a detail not shown here. Equal entries are not always repeated.

Legend:
MDP-induced TNFα release = MDP-induced TNFα release in human whole blood; format: cell-based; settings: inhibition of MDP-induced TNFα release
Protocol: (§1) Before treatment with compound or vehicle, THP1 cells, human and rat PBMCs were counted using Vi-Cell cell counter (Invitrogen) and adjusted to a final cell density of […] using complete growth medium. Cells or whole blood were treated with vehicle (0.1% DMSO) or fixed concentrations of compound up to 1 μM in half log unit increments and incubated for the time period indicated in the figure.
Where the assessment of cytokines was performed, L18-MDP was added to the cell culture media (1 μg/ml) or to the rat blood samples (100 ng/ml) and samples were incubated for up to 4 h. […]
Cytokine measurement assay: Cytokine levels were measured in rat plasma or rat PBMCs cell culture supernatants using rat V-Plex TNFα, in human plasma or human PBMCs cell culture supernatants with either TNFα tissue culture or 7-plex kit. Rat serum and tissues samples from the in vivo L18-MDP acute inflammation model were analyzed using the rat TNFα, Il-6 and IL-8 U-Plex kits. […] Levels of cytokines spontaneously released from human colon biopsies cell culture supernatants were measured using Human IL-1 beta/IL-1F2 DuoSet ELISA (Bio-techne), Human IL-6 ELISA (Immunotools) and Human TNF-alpha DuoSet ELISA (Bio-techne). […] The MSD plates were analyzed using the MSD sector imager 6000 plate reader and cytokines concentration (pg/ml) was obtained by using the MSD DISCOVERY WORKBENCH software version 4.0.12.1 […]

[1] = ChromLogD7.4 high-throughput chromatographic lipophilicity; format: physicochemical
RIPK2 = RIPK2 (Homo sapiens, UniProt O43353); experiment: RIPK2 degradation in human PBMCs (immunoassay); format: cell-based; design: endogenous in cells; host or cells: primary human PBMCs from leukodepletion filters (NHSBT); settings: 24 h
RIPK2, sequence (O43353 whole entry): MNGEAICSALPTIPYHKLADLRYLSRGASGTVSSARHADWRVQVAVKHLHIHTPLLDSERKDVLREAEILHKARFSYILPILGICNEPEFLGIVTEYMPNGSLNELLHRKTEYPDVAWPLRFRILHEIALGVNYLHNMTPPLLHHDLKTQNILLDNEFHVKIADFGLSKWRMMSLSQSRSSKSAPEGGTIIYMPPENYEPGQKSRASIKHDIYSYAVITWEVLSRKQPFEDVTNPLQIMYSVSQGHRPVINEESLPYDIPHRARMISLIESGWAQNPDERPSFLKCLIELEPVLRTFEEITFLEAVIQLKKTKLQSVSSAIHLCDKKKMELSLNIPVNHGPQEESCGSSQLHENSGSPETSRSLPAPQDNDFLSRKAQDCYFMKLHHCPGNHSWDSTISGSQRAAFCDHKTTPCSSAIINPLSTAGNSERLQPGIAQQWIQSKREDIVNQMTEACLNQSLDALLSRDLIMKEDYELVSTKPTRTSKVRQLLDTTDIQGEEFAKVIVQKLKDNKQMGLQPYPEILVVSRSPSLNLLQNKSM
Protocol: PBMCs were isolated from leukodepletion filter from platelet aphaeresis supplied by National Health System Blood and Transplant—NHSBT Apheresed at NHBST.
as §1
Where the assessment of cytokines was performed, L18-MDP was added to the cell culture media (1 μg/ml) or to the rat blood samples (100 ng/ml) and samples were incubated for up to 4 h. […] Samples were them spun down at 1000 g and the cell culture supernatant, plasma or serum were collected for cytokines assessment, while cell pellets were used for RIPK2 and/or cIAP1, cIAP2, and XIAP levels analysis via immunoblotting.
Simple Western immunoassay: Cell lysates were mixed with 5× concentrated master mix (Protein Simple) and denatured at 95 °C on a heat block for 5 min together with the provided ladder (Protein Simple). Antibodies were diluted in the provided buffer as following: anti-RIPK2 (1:10 or 1:50), anti-cIAP1(1:10), anti-cIAP2 (1:10), anti-XIAP (1:10), mouse anti-β-actin (Abcam - 1:1000), rabbit anti-β-actin (Abcam - 1:50) and anti-vinculin (1:100). All reagents (blocking buffer, primary and secondary antibodies, streptavadin, luminol/peroxide, separation matrix, stacking matrix and water) were added to the Protein Simple plate containing the ladder and lysates and the plate was placed in a Protein Simple Western instrument and the Simple Western default size assay protocol was used. […] The area under the peak values obtained for RIPK2, cIAP1, cIAP2 or XIAP were normalized relative to the control protein values.
In vitro experimental data were analyzed using a 4-parameter logistic equation in GraphPad Prism 5.0.4. to generate an estimate of the half-maximal concentration and maximal degradation, DC50 and Dmax value respectively, for concentration-degradation relationships. Cytokine levels were analyzed in a similar manner to yield IC50 and Imax values. […] Where analysis to a sigmoidal relationship was not possible, the data points are shown as mean ± s.e.m.

cIAP2 = target: T1, cIAP2 (Homo sapiens, UniProt Q13489); experiment: cIAP2 levels in human PBMCs, 24 h, capillary immunoassay; format: cell-based; settings: up to 1uM
T1 construct: endogenous in cells; host or cells: primary human PBMCs
T1 sequence (Q13489 whole entry): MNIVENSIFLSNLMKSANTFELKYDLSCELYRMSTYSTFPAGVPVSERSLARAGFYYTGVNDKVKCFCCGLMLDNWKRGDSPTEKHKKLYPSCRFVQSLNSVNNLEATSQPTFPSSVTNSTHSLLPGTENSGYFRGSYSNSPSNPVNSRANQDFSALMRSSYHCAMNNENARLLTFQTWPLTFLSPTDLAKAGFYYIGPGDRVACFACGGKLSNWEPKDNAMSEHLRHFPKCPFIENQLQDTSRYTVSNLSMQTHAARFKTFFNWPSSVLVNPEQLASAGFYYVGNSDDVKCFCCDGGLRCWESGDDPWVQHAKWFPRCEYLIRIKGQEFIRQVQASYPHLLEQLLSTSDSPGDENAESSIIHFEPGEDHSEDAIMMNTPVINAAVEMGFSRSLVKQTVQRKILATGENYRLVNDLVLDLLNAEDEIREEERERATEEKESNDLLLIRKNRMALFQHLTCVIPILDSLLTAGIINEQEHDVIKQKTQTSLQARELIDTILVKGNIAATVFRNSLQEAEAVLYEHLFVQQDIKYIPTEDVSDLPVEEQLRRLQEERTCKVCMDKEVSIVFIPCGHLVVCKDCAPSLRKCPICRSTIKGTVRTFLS
Protocol: Where the assessment of cytokines was performed, L18-MDP was added to the cell culture media (1 μg/ml) or to the rat blood samples (100 ng/ml) and samples were incubated for up to 4 h. For human blood, 250 ng/ml MDP (Invivogen) was added following compound treatment and the samples were further incubated for 5 h. Samples were them spun down at 1000 g and the cell culture supernatant, plasma or serum were collected for cytokines assessment, while cell pellets were used for RIPK2 and/or cIAP1, cIAP2, and XIAP levels analysis via immunoblotting.
Simple Western immunoassay: Cell lysates were mixed with 5× concentrated master mix (Protein Simple) and denatured at 95 °C on a heat block for 5 min together with the provided ladder (Protein Simple). Antibodies were diluted in the provided buffer as following: anti-RIPK2 (1:10 or 1:50), anti-cIAP1(1:10), anti-cIAP2 (1:10), anti-XIAP (1:10), mouse anti-β-actin (Abcam - 1:1000), rabbit anti-β-actin (Abcam - 1:50) and anti-vinculin (1:100). […] All samples were analyzed using the associated Compass software 3.1.7. […]
Cell viability was assessed by using Cell Titer
Kit (Promega) according to the manufacturer’s instructions. Samples were analysed using […]

[2] = tested on: L18-MDP-induced cytokine release; experiment: In vivo L18-MDP acute inflammation model, serum cytokines (TNFα, IL-6, IL-8); design: species or system rat; cytokine level (fig 6a) / cytokine level (fig 6b) / cytokine level (fig 6c): unit not given here; settings: for cytokine level (fig 6a) / cytokine level (fig 6b) / cytokine level (fig 6c): serum, individual rats, beside L18-MDP control;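 for cytokine level (fig 6a): time is length of PROTAC pretreatment before a 2 h L18-MDP challenge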;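 for cytokine level (fig 6b): time is length of PROTAC pretreatment before a 2 h L18-MDP challenge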;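 for cytokine level (fig 6c): time is length of PROTAC pretreatment before a 2 h L18-MDP challenge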
Protocol: In vivo L18-MDP administration to rodents results in an acute inflammatory response characterised by the rapid production of inflammatory cytokines. […]. […]. Blood concentrations of 6 and 7 tracked closely and dropped below the LLQ after 24 h.
. Cytokine levels were determined in serum generated from the terminal blood samples and in tissue lysates as detailed below.
Cytokine measurement assay: Cytokine levels were measured in rat plasma or rat PBMCs cell culture supernatants using rat V-Plex TNFα, in human plasma or human PBMCs cell culture supernatants with either TNFα tissue culture or 7-plex kit. Rat serum and tissues samples from the in vivo L18-MDP acute inflammation model were analyzed using the rat TNFα, Il-6 and IL-8 U-Plex kits. All kits provided by Meso Scale Discovery (MSD). Levels of cytokines spontaneously released from human colon biopsies cell culture supernatants were measured using Human IL-1 beta/IL-1F2 DuoSet ELISA (Bio-techne), Human IL-6 ELISA (Immunotools) and Human TNF-alpha DuoSet ELISA (Bio-techne). All samples were processed accordingly to the manufacturer’s instructions. The MSD plates were analyzed using the MSD sector imager 6000 plate reader and cytokines concentration (pg/ml) was obtained by using the MSD DISCOVERY WORKBENCH software version 4.0.12.1
For in vivo studies, RIPK2:tubulin ratios and cytokine levels from each individual experiment were analysed either using a One-way ANOVA with Dunnet’s post-test or a two way ANOVA using GraphPad Prism 5.0.4 to determine statistical significance with 95% confidence levels.

Caspases 3 and 7 = experiment: Caspase 3/7 activation in human PBMCs (Caspase-Glo 3/7), 24 h

CN[C@@H](C)C(=O)N[C@H](C(=O)N1CCC[C@H]1c1nc(C(=O)c2ccc(F)cc2)cs1)C1CCN(C(=O)c2cnc(N3CCN(CCOc4cc5ncnc(Nc6n[nH]c(C)c6C)c5cc4S(=O)(=O)C(C)(C)C)CC3)nc2)CC1 [PROTAC 4]
hWB MDP pIC50 ± SEM (n) (MDP-induced TNFα release): 7.7 ± 0.05 (4)
ChromLogD7.4 [1]: 4.2
hPBMC pDC50 ± SEM, 24 h (n = 3) (RIPK2; RIPK2 degradation): 7.9 ± 0.2
hPBMC Dmax ± SEM, 24 h (n = 3) (RIPK2; maximal RIPK2 degradation): 69.2 ± 11.5%

CN[C@@H](C)C(=O)N[C@H](C(=O)N1C[C@@H](NC(=O)c2cnc(N3CCN(CCCOc4cc5ncnc(Nc6n[nH]c(C)c6C)c5cc4S(=O)(=O)C(C)(C)C)CC3)cn2)C[C@H]1C(=O)Nc1c(F)cccc1F)C(C)(C)C [PROTAC 6]
change in cIAP2 protein levels, in words (cIAP2): no change in protein levels
inhibition of serum cytokines ([2]; rat, 0.3 mg/kg SC, intravenous L18-MDP challenge, first three days): > 75%
cytokine level (fig 6a) ([2]; time 6 h): 18.49 (2×) and 16.66 and 19.87 and 20.63
cytokine level (fig 6b) ([2]; time 6 h): 1.67 and 2.89 and 2.19 and 1.98 and 1.58
cytokine level (fig 6c) ([2]; time 6 h): 4 (3×) and 5 and 3
cytokine level (fig 6a) ([2]; time 24 h): 17.80 and 19.20 and 17.38 and 15.28 and 17.94
cytokine level (fig 6b) ([2]; time 24 h): 3.64 and 5.77 and 5.56 and 2.08 and 8.31
cytokine level (fig 6c) ([2]; time 24 h): 1 (3×) and 2 (2×)
cytokine level (fig 6a) ([2]; time 72 h): 19.88 and 25.30 and 22.33 and 26.08 and 26.21
cytokine level (fig 6b) ([2]; time 72 h): 18.18 and 42.78 and 20.80 and 21.32 and 12.42
cytokine level (fig 6c) ([2]; time 72 h): 19 and 9 and 13 and 7 and 24
cytokine level (fig 6a) ([2]; time 240 h): 63.85 and 82.37 and 43.93 and 24.16 and 36.40
cytokine level (fig 6b) ([2]; time 240 h): 64.23 and 50.00 and 38.00 and 38.38 and 36.37
cytokine level (fig 6c) ([2]; time 240 h): 28 and 68 and 85 and 81 and 23
cytokine level (fig 6a) ([2]; time 408 h): 65.92 and 78.49 and 54.66 and 71.18 and 46.33
cytokine level (fig 6b) ([2]; time 408 h): 61.45 and 97.28 and 63.67 and 57.26 and 26.18
cytokine level (fig 6c) ([2]; time 408 h): 30 and 38 and 69 and 58 and 40
effect on caspases 3/7 activation, in words (Caspases 3 and 7): no
